Laboratory results as given in patent US12455279B2, “Personalized immunotherapy for rejuvenating activating and strengthening exhausted and dysfunctional T cells, reducing PD-1, and improving immune function” (priority 2018, dated 2025).
“And” between values parts separate entries of the source, which are not always exact repeats. Equal entries are not always repeated. “Also recorded” adds a separate entry of the source. Where no end group is shown, it is not given here.

Tests used:
[1] = tested on: PD-1 expressing large proliferating CD3+ normal human T cells; experiment: PD-1 expression on large proliferating T cells (FSC/SSC gating), 1 Hr treatment; assay type: cell-based; conditions: 10^−8M; for % reduction in % of large T cells expressing PD-1: vs untreated
Protocol: (§1) Peripheral blood lymphocytes (PBLs) were separated from normal human leukocytes of healthy donors by Ficol separation and CD3 positive T cells were separated by anti-CD3 antibody-coupled magnetic beads. The CD3+ T cells were cultured in RPMI 1640 medium supplemented with 10% heat inactivated fetal calf serum (FCS), 1% L-Glutamine, 1% sodium pyruvate, 1% non-essential amino acids, and 1% antibiotics. The cells were usually maintained for, for on average 24 hours after their separation before various molecules were added and their effects on the T cells were measured. […] It was therefore tested if neurotransmitters, neuropeptides, and/or modulators of voltage-gated ion channels can reduce PD-1 on the cell surface of T cells. Such a reduction would allow the T cells to escape the tumor-induced T cell suppression, and the activated T cells could then attach the cancer cells. As such, the expression of PD-1 on the surface of these treated and untreated T cells was monitored. […] Shorter in vitro incubation times are frequently preferable when cells are going to subsequently be returned to a subject, as they end to decrease the risk of an adverse reaction.
(§2) CD3 positive T cells of patients are a heterogenous mix of different types of T cells. […] Using this FCS and SSC analysis, T cells can be distinguished and separated by size into large proliferating T cells and smaller non-proliferating T cells.

[2] = tested on: PD-1 expressing smaller non-proliferating CD3+ normal human T cells; experiment: PD-1 expression on smaller non-proliferating T cells (FSC/SSC gating), 1 Hr treatment; assay type: cell-based; conditions: 10−8M; for % reduction in % of smaller T cells expressing PD-1: vs untreated
Protocol: as §1, §2

[3] = tested on: CD3+ T cells of liver cancer patients; experiment: Proliferation / big proliferating T cells / CD25 of CD3+ T cells of liver cancer patients; assay type: cell-based, human; set-up: % big/activated/proliferating T cells: concentration or dose not given beside the values; conditions: for % big/activated/proliferating T cells / Fold increase (big/activated/proliferating T cells): T cells of liver cancer patient one; for % big/activated/proliferating T cells: 60 hours culture; for Fold increase (big/activated/proliferating T cells): vs untreated; for number of T cells present in culture (FIG. 1) / increase in the number of big, proliferating CD3 positive cells (ranking in words): patient one; for number of T cells present in culture (FIG. 1): 60 hours after administration; for increase in the number of big, proliferating CD3 positive cells (ranking in words): flow cytometer
Protocol: Blood was drawn from two patients suffering from liver cancer, patient one and patient two who both suffer from hepatocellular carcinoma. 15 mLs of blood yielded roughly 2.5×10^7 peripheral blood leucocytes, from which approximately […] positive T cells were isolated. The cells were cultured as described above, and the effects of various molecules and their combinations on those T cells were examined.
Cell proliferation was monitored in culture for 60 hours after administration of the molecule/s (FIG. 1).

[4] = tested on: PD-1 expressing CD3+ normal human T cells; experiment: PD-1 surface expression on CD3+ T cells of healthy donors after treatment (1, 18, 24 Hr); assay type: cell-based; conditions: for % reduction in % of T cells expressing PD-1: vs untreated; for effect on PD-1 expressing T cells: incubated for 24 hours
Protocol: as §1

Molecule | % of large T cells expressing PD-1 [1] | % reduction in % of large T cells expressing PD-1 [1] | % of smaller T cells expressing PD-1 [2] | % reduction in % of smaller T cells expressing PD-1 [2] | % big/activated/proliferating T cells [3] | Fold increase (big/activated/proliferating T cells) [3] | number of T cells present in culture (FIG. 1) [3] | % of T cells expressing PD-1 ([4]; 1 Hr treatment, 10^−8M) | % reduction in % of T cells expressing PD-1 ([4]; 1 Hr treatment, 10^−8M) | % of T cells expressing PD-1 ([4]; 18 Hr treatment, 10^−7M) | % reduction in % of T cells expressing PD-1 ([4]; 18 Hr treatment, 10^−7M) | % of T cells expressing PD-1 ([4]; 24 Hr treatment, 10^−7M) | % reduction in % of T cells expressing PD-1 ([4]; 24 Hr treatment, 10^−7M) | % of T cells expressing PD-1 ([4]; 24 Hr treatment, 10^−8M) | % reduction in % of T cells expressing PD-1 ([4]; 24 Hr treatment, 10^−8M) | effect on PD-1 expressing T cells [4] | reduction of PD-1 surface expression level and of number of PD-1 expressing T cells ([4]; 1, 18 or 24 hours treatment) | increase in the number of big, proliferating CD3 positive cells (ranking in words) [3] | surface expression of CD25 (FIG. 2D) ([3]; T cells of patient one)
CGRP | 16.5% | 23.3% | 35.9% | 18.2% | 19.20% | 4.3-fold | increased the number of T cells present in culture |  |  |  |  |  |  |  |  |  |  |  | 
Neuropeptide Y: neuropeptide |  |  |  |  | 16.40% | 3.6-fold | increased the number of T cells present in culture |  |  |  |  |  |  |  |  |  |  |  | 
Oc1cc2c(cc1O)C(c1ccccc1)CNCC2 (stereo not shown) [SKF38393] | 15.6% | 27.4% | 36.7% | 16.4% |  |  |  | 26.2% | 28% | 26.40% | 23.90% | 21.8% | -6.73% | 20.3% | 0.61% | did not have a positive effect |  |  | 
NC[C@@H]1O[C@H](C23CC4CC(CC(C4)C2)C3)Cc2c1ccc(O)c2O [A77636] | 20.5% | 4.7% | 40.8% | 7.1% |  |  |  | 27.25% | 25% | 27.10% | 21.90% | 12.7% | 37.84% | 14.7% | 28.05% |  |  |  | 
CN[C@@H]1Cc2cccc3[nH]c(=O)n(c23)C1 [Sumanirole] | 13.6% | 36.7% | 36.2% | 17.5% |  |  |  | 25.65% | 30% | 26.15% | 24.64% | 16.4% | 19.71% | 16% | 21.66% |  |  |  | 
GnRH-I: neuropeptide (QHWSYGLRPG; ends and bridges not checked; UniProt P01148 24-33, looked up) | 16.1% | 25.1% | 36.6% | 16.6% |  |  |  | 34.27% | 6% |  |  |  |  |  |  |  |  |  | 
NCCc1ccc(O)c(O)c1 [Dopamine] | 19.1% | 11.2% | 40.4% | 8.0% | 14% | 3-fold | increased the number of T cells present in culture; also recorded: most effective | 30.3% | 17% | 24.90% | 28.40% | 10% | 51.05% | 22.4% | −9.64% | did not have a positive effect |  |  | 
Cc1cccc(C(=O)NCN2CCN(c3ccccc3C#N)CC2)c1 [PD168077] | 15.6% | 27.4% | 40.3% | 8.2% |  |  |  | 15.1% | 59% | 24% | 30.84% | 5.3% | 74.05% |  |  |  | greatest reduction in mean percentage of PD-1 expressing T cells after 24 hours of treatment |  | 
N[C@@H](CCC(=O)O)C(=O)O [Glutamate] | 13.0% | 39.5% | 32.8% | 25.3% | 24.80% | 5.4-fold | increased the number of T cells present in culture; also recorded: most effective | 24.65% | 33% | 23.70% | 31.7% | 15.8% | 22.64% | 16.3% | 20.2% |  |  | most effective | 
CCCN1CCO[C@@H]2c3cc(O)ccc3OC[C@H]21 [PD 128907] | 16.1% | 25.1% | 38.4% | 12.5% |  |  |  | 26.15% | 29% | 27.25% | 21.47% | 13.6% | 33.41% | 16.3% and 10.7% | 47.61% |  |  |  | 
GnRH-II: neuropeptide (peptide, UniProt O43555 24-120, looked up, Progonadoliberin-2, neuropeptide) Progonadoliberin-2: QHWSHGWYPGGKRALSSAQDPQNALRPPGRALDTAAGSPVQTAHGLPSDALAPLDDSMPWEGRTTAQWSLHRKRHLARTLLTAAREPRPAPPSSNKV | 9.5% | 55.8% |  |  |  |  | increased the number of T cells present in culture | 31.6% | 14% |  |  |  |  |  |  |  |  | most effective | increased the surface expression of CD25
